Common to all, as to assay type: in vivo
The test system of experiment [1] is VERPE: Veronica persica. In words: Pre-emergence herbicidal effect. The following applies: application rate 320 g/ha, scored visually after 3 weeks, 100% = plants have died, 0% = like control plants. From the text:
(§1) 1. Pre-Emergence Herbicidal Effect and Crop Plant Compatibility Seeds of monocotyledonous and dicotyledonous weed plants and crop plants are laid out in sandy loam soil in wood-fiber pots and covered with soil. The compounds of the invention, formulated in the form of wettable powders (WP) or as emulsion concentrates (EC), are then applied to the surface of the covering soil as aqueous suspension or emulsion at a water application rate equating to 600 to 800 L/ha with addition of 0.2% wetting agent. After the treatment, the pots are placed in a greenhouse and kept under good growth conditions for the trial plants. The damage to the test plants is scored visually after a test period of 3 weeks by comparison with untreated controls (herbicidal activity in percent (%): 100% activity=the plants have died, 0% activity=like control plants). [table]

In experiment [2] the test system is STEME: Stellaria media. In words: Pre-emergence herbicidal effect. The conditions noted are these: application rate 320 g/ha, scored visually after 3 weeks, 100% = plants have died, 0% = like control plants.
Text: as §1

Experiment [3] relates to MATIN: Matricaria inodora. In words: Pre-emergence herbicidal effect. The conditions noted are these: application rate 320 g/ha, scored visually after 3 weeks, 100% = plants have died, 0% = like control plants.
Text: as §1

Experiment [4] relates to ECHCG: Echinochloa crus-galli. In words: Pre-emergence herbicidal effect. The following applies: application rate 320 g/ha, scored visually after 3 weeks, 100% = plants have died, 0% = like control plants.
Text: as §1

Experiment [5] concerns VERPE: Veronica persica. In words: Post-emergence herbicidal effect. The conditions noted are these: application rate 320 g/ha, treated at one-leaf stage, assessed visually after about 3 weeks, 100% = plants have died. As to the method:
(§2) [table] 2. Post-Emergence Herbicidal Effect and Crop Plant Compatibility Seeds of monocotyledonous and dicotyledonous weed and crop plants are laid out in sandy loam soil in wood-fiber pots, covered with soil and cultivated in a greenhouse under good growth conditions. 2 to 3 weeks after sowing, the test plants are treated at the one-leaf stage. The compounds of the invention, formulated in the form of wettable powders (WP) or as emulsion concentrates (EC), are then sprayed onto the green parts of the plants as aqueous suspension or emulsion at a water application rate equating to 600 to 800 L/ha with addition of 0.2% wetting agent. After the test plants have been left to stand in the greenhouse under optimal growth conditions for about 3 weeks, the action of the preparations is assessed visually in comparison to untreated controls (herbicidal action in percent (%): 100% activity=the plants have died, 0% activity=like control plants).

In experiment [6] the test system is STEME: Stellaria media. In words: Post-emergence herbicidal effect. The conditions noted are these: application rate 320 g/ha, treated at one-leaf stage, assessed visually after about 3 weeks, 100% = plants have died. Here is the method:
as §2

The subject of another experiment is VIOTR: Viola tricolor. In words: Post-emergence herbicidal effect. The following applies: application rate 320 g/ha, treated at one-leaf stage, assessed visually after about 3 weeks, 100% = plants have died. Here is the method: as §2
In experiment [7] the test system is POLCO: Polygonum convolvulus. In words: Pre-emergence herbicidal effect. The conditions noted are these: application rate 320 g/ha, scored visually after 3 weeks, 100% = plants have died, 0% = like control plants.
Text: as §1

With `CC(C)(C)c1nnc(NC2CCOc3ccccc32)nc1N` (racemic) [Example 1.8], the “Herbicidal activity with respect to [%] VERPE” value (shortened to “Herbicidal activity … [%] VERPE”) with VERPE: Veronica persica [1] came out at 100%. Besides, in the experiment on STEME: Stellaria media [2], the “Herbicidal activity with respect to [%] STEME” value (shortened to “Herbicidal activity … [%] STEME”) is 80%.

With `Clc1nnc(NC2CCCc3ccccc32)nc1NC1CC1` (racemic) [Example 1.10], the “Herbicidal activity … [%] STEME” value in the experiment with STEME: Stellaria media [2] is on record as 80%.

With `Clc1nnc(NC2CCOc3ccccc32)nc1NC1CC1` (racemic) [Example 1.14], the “Herbicidal activity … [%] STEME” value with STEME: Stellaria media [2] amounted to 90%.

Take `CNC(=O)c1nnc(NC2CCc3ccccc32)nc1N` (racemic) [Example 1.35]: in the experiment with VERPE: Veronica persica [1], the “Herbicidal activity … [%] VERPE” value stood at 100%.

For the compound `Nc1nc(NC2COc3ccccc32)nnc1C(F)(F)F` (racemic) [Example 1.48], the “Herbicidal activity with respect to [%] MATIN” value (shortened to “Herbicidal activity … [%] MATIN”) in experiment [3] amounted to 100%. Also, the entries for the “Herbicidal activity … [%] VERPE” value with VERPE: Veronica persica [1] and with VERPE: Veronica persica [5] were 100% and 80%, respectively. Besides, the “Herbicidal activity with respect to [%] ECHCG” value (from here on “Herbicidal activity … [%] ECHCG”) in experiment [4] came to 100%. In addition, the “Herbicidal activity … [%] STEME” value with STEME: Stellaria media [2] and with STEME: Stellaria media [6] was 100% each time.

With `N#Cc1nnc(NC2CCCc3cc(F)ccc32)nc1N` (racemic) [Example 1.63], in the experiment with STEME: Stellaria media [2], the “Herbicidal activity … [%] STEME” value is listed as 100%.

For the compound `Nc1nc(NC2c3ccccc3CC2O)nnc1C(F)(F)F` (racemic) [Example 1.84], the figures for the “Herbicidal activity … [%] VERPE” value in the experiment with VERPE: Veronica persica [1] and in the experiment with VERPE: Veronica persica [5] were 100% and 80%, respectively. Besides, in the experiment with STEME: Stellaria media [2], the “Herbicidal activity … [%] STEME” value was 100%. In the experiment with VIOTR: Viola tricolor, the “Herbicidal activity with respect to [%] VIOTR” value (“Herbicidal activity … [%] VIOTR” for short) came out at 90%.

As for `Cc1ccc2c(c1)[C@H](Nc1nnc(Cl)c(NC3CC3)n1)[C@@H](C)C2` [Example 1.2], in experiment [3], the “Herbicidal activity … [%] MATIN” value came out at 90%. In addition, the “Herbicidal activity … [%] VERPE” value in the experiment with VERPE: Veronica persica [1] was determined as 100%. The “Herbicidal activity … [%] STEME” value in the experiment on STEME: Stellaria media [2] was determined as 100%.

In the case of `CC(C)(C)c1nnc(N[C@@H]2CCCc3ccccc32)nc1N` [Example 1.5], the “Herbicidal activity … [%] MATIN” value in experiment [3] is listed as 90%. Besides, the “Herbicidal activity … [%] VERPE” value was determined as 100% in the experiment on VERPE: Veronica persica [1] and 80% in the experiment on VERPE: Veronica persica [5].

For the compound `Cc1ccc2c(c1)[C@H](Nc1nnc(C(C)(C)C)c(N)n1)[C@@H](C)C2` [Example 1.6], the “Herbicidal activity … [%] MATIN” value in experiment [3] was found to be 90%. For the same compound, the “Herbicidal activity … [%] VERPE” value in the experiment with VERPE: Veronica persica [1] was 100%; in the experiment with VERPE: Veronica persica [5], 80%. Besides, the “Herbicidal activity … [%] VIOTR” value with VIOTR: Viola tricolor is on record as 80%.

In the case of `CC(C)(C)c1nnc(N[C@@H]2CCc3ccccc32)nc1N` [Example 1.7], the “Herbicidal activity … [%] MATIN” value in experiment [3] was determined as 90%. The “Herbicidal activity … [%] VERPE” value with VERPE: Veronica persica [1] came to 100%; in the experiment with VERPE: Veronica persica [5], 90%.

Consider `CC(=O)c1nnc(N[C@@H]2CCCc3ccccc32)nc1N` [Example 1.30], for which the “Herbicidal activity … [%] MATIN” value in experiment [3] was 100%. Moreover, the “Herbicidal activity … [%] VERPE” value in the experiment on VERPE: Veronica persica [1] was 100%; in the experiment on VERPE: Veronica persica [5] it was 80%. The “Herbicidal activity with respect to [%] POLCO” value in experiment [7] is 100%. Besides, in experiment [4], the “Herbicidal activity … [%] ECHCG” value was 80%. In addition, the “Herbicidal activity … [%] STEME” value with STEME: Stellaria media [2] came to 100%; in the experiment on STEME: Stellaria media [6], 80%.

Consider `CCOC(=O)c1nnc(N[C@@H]2CCc3ccccc32)nc1N` [Example 1.33], for which the “Herbicidal activity … [%] MATIN” value in experiment [3] is on record as 100%. Further, the “Herbicidal activity … [%] VERPE” value in the experiment with VERPE: Veronica persica [1] is listed as 100%; in the experiment with VERPE: Veronica persica [5], 80%. In experiment [7], the “Herbicidal activity with respect to [%] POLCO” value was 100%. Also, the “Herbicidal activity … [%] ECHCG” value in experiment [4] is reported as 80%. Moreover, the “Herbicidal activity … [%] STEME” value with STEME: Stellaria media [2] is recorded as 100%.

Consider `CNC(=O)c1nnc(N[C@@H]2CCCc3ccccc32)nc1N` [Example 1.34, 5-Amino-N-methyl-3-[(1R)-1,2,3,4-tetrahydronaphthalen-1-ylamino]-1,2,4-triazine-6-carboxamide], for which the “Herbicidal activity … [%] VERPE” value in the experiment on VERPE: Veronica persica [5] is reported as 90%.

Regarding `N#Cc1nnc(N[C@@H]2CCc3ccccc32)nc1N` [Example 1.38], in the experiment with VERPE: Veronica persica [1], the “Herbicidal activity … [%] VERPE” value was 100%. For the same compound, the “Herbicidal activity … [%] ECHCG” value in experiment [4] was determined as 80%. Besides, the “Herbicidal activity … [%] STEME” value in the experiment with STEME: Stellaria media [2] came out at 100%. Also, the “Herbicidal activity … [%] VIOTR” value with VIOTR: Viola tricolor is 90%.

`CCOC(=O)CCNC(=O)c1nnc(N[C@H]2c3cc(C)ccc3C[C@@H]2C)nc1N` [Example 1.42]: the “Herbicidal activity … [%] VERPE” value with VERPE: Veronica persica [1] was 80%. Besides, in the experiment on STEME: Stellaria media [2], the “Herbicidal activity … [%] STEME” value is on record as 100%.

As to `CCOC(=O)CNC(=O)c1nnc(N[C@H]2c3cc(C)ccc3C[C@@H]2C)nc1N` [Example 1.43], in experiment [3], the “Herbicidal activity … [%] MATIN” value is listed as 100%. In addition, the entries for the “Herbicidal activity … [%] VERPE” value with VERPE: Veronica persica [1] and in the experiment on VERPE: Veronica persica [5] were 100% and 80%, respectively. In addition, the “Herbicidal activity … [%] STEME” value in the experiment with STEME: Stellaria media [2] worked out at 100%. In addition, in the experiment on VIOTR: Viola tricolor, the “Herbicidal activity … [%] VIOTR” value came out at 80%.

With `CCCS(=O)(=O)NC(=O)c1nnc(N[C@H]2c3cc(C)ccc3C[C@@H]2C)nc1N` [Example 1.53], the “Herbicidal activity … [%] VERPE” value in the experiment on VERPE: Veronica persica [1] was found to be 100%; with VERPE: Veronica persica [5], 80%. The “Herbicidal activity … [%] STEME” value in the experiment with STEME: Stellaria media [2] was determined as 100%.

Turning to `Cc1ccc2c(c1)[C@H](Nc1nnc(C(=O)NS(=O)(=O)c3ccccc3)c(N)n1)[C@@H](C)C2` [Example 1.55], the results for the “Herbicidal activity … [%] VERPE” value in the experiment on VERPE: Veronica persica [1] and with VERPE: Veronica persica [5] were 90% and 80%, respectively. Further, the “Herbicidal activity … [%] STEME” value in the experiment on STEME: Stellaria media [2] amounted to 100%. The “Herbicidal activity … [%] VIOTR” value in the experiment with VIOTR: Viola tricolor was determined as 80%.

As to `Cc1ccc2c(c1)[C@H](Nc1nnc(C(=O)NS(=O)(=O)c3ccc([N+](=O)[O-])cc3)c(N)n1)[C@@H](C)C2` [Example 1.56], the “Herbicidal activity … [%] VERPE” value in the experiment on VERPE: Veronica persica [1] amounted to 100%. For the same compound, the “Herbicidal activity … [%] STEME” value with STEME: Stellaria media [2] stood at 100%.

Consider `Cc1ccc2c(c1)[C@H](Nc1nnc(C(=O)NS(=O)(=O)C(F)(F)F)c(N)n1)[C@@H](C)C2` [Example 1.57], for which the “Herbicidal activity … [%] VERPE” value with VERPE: Veronica persica [1] is given as 100%; in the experiment on VERPE: Veronica persica [5], 80%. Also, the “Herbicidal activity … [%] STEME” value with STEME: Stellaria media [2] is given as 100%.

In the case of `Cc1ccc2c(c1)[C@@H](Nc1nnc(C#N)c(N)n1)CC2` [Example 1.61], the “Herbicidal activity … [%] STEME” value with STEME: Stellaria media [2] was 80%.

For `Cc1ccc2c(c1)[C@H](Nc1nnc(C(=O)O)c(N)n1)CC2` [Example 1.75], the “Herbicidal activity … [%] STEME” value with STEME: Stellaria media [6] came out at 100%.

As to `Cc1ccc2c(c1)[C@H](Nc1nnc(-c3ccc(Cl)cc3)c(N)n1)[C@@H](C)C2` [Example 1.79, 6-(4-Chlorophenyl)-N^3-[(1R,2S)-2,6-dimethyl-2,3-dihydro-1H-inden-1-yl]-1,2,4-triazine-3,5-diamine], the “Herbicidal activity … [%] VERPE” value with VERPE: Veronica persica [1] worked out at 100%. For the same compound, the “Herbicidal activity … [%] STEME” value in the experiment on STEME: Stellaria media [2] was found to be 100%.

With `C=Cc1nnc(N[C@H]2c3cc(C)ccc3C[C@@H]2C)nc1N` [Example 1.80], the “Herbicidal activity … [%] VERPE” value in the experiment with VERPE: Veronica persica [1] came out at 100%. The “Herbicidal activity … [%] STEME” value with STEME: Stellaria media [2] is recorded as 100%. In the experiment on VIOTR: Viola tricolor, the “Herbicidal activity … [%] VIOTR” value is on record as 100%.

Take `CS(=O)(=O)c1nnc(NC2c3ccccc3CC2O)nc1N` (stereo not drawn) [Example 1.87]: the “Herbicidal activity … [%] VERPE” value with VERPE: Veronica persica [1] stood at 90%. The “Herbicidal activity … [%] STEME” value with STEME: Stellaria media [2] is listed as 100%.

For the origin of these results see US10743540B2, “3-amino-1,2,4-triazine derivatives and their use for controlling undesired plant growth” (BAYER CROPSCIENCE AKTIENGESELLSCHAFT, priority 2016, dated 2020).
